Experimental data taken from PubChem BioAssay AID2060903 (Molecular Pharmacology Branch, DTP, NCI, 2025).

Test system: 377384-186-R-J1-PDC complex spheroid viability
Assay: Anticancer human tumor 377384-186-R-J1-PDC patient-derived pancreatic carcinoma cell line growth inhibition [RAS]
Conditions: for IC50: curve of first compound; for viability, T/C: stronger effect = lower value
Method in brief: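 Tumour cells grown as complex spheroids with HUVEC endothelial cells and mesenchymal stem cells, treated with RAS pathway inhibitor combinations. Each agent spans half-log steps from near clinical Cmax, or 10 microM where Cmax is unknown.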

[1] = second compound 0.0316 µM, first compound 0.0316 µM
[2] = second compound 0.0316 µM, first compound 0.1 µM
[3] = second compound 0.0316 µM, first compound 0.316 µM
[4] = second compound 0.0316 µM, first compound 1 µM
[5] = second compound 0.0316 µM, first compound 3.16 µM
[6] = second compound 0.0316 µM, first compound 10 µM
[7] = second compound 0.1 µM, first compound 0.0316 µM
[8] = second compound 0.1 µM, first compound 0.1 µM
[9] = second compound 0.1 µM, first compound 0.316 µM
[10] = second compound 0.1 µM, first compound 1 µM
[11] = second compound 0.1 µM, first compound 3.16 µM
[12] = second compound 0.1 µM, first compound 10 µM
[13] = second compound 0.316 µM, first compound 0.0316 µM
[14] = second compound 0.316 µM, first compound 0.1 µM
[15] = second compound 0.316 µM, first compound 0.316 µM
[16] = second compound 0.316 µM, first compound 1 µM
[17] = second compound 0.316 µM, first compound 3.16 µM
[18] = second compound 0.316 µM, first compound 10 µM
[19] = second compound 1 µM, first compound 0.0316 µM
[20] = second compound 1 µM, first compound 0.1 µM
[21] = second compound 1 µM, first compound 0.316 µM
[22] = second compound 1 µM, first compound 1 µM
[23] = second compound 1 µM, first compound 3.16 µM
[24] = second compound 1 µM, first compound 10 µM
[25] = second compound 3.16 µM, first compound 0.0316 µM
[26] = second compound 3.16 µM, first compound 0.1 µM
[27] = second compound 3.16 µM, first compound 0.316 µM
[28] = second compound 3.16 µM, first compound 1 µM
[29] = second compound 3.16 µM, first compound 3.16 µM
[30] = second compound 3.16 µM, first compound 10 µM
[31] = second compound 10 µM, first compound 0.0316 µM
[32] = second compound 10 µM, first compound 0.1 µM
[33] = second compound 10 µM, first compound 0.316 µM
[34] = second compound 10 µM, first compound 1 µM
[35] = second compound 10 µM, first compound 3.16 µM
[36] = second compound 10 µM, first compound 10 µM
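Note: spheroids exposed to compounds for seven days before readout.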

SMILES: Cc1nc(N2CCC3(CC2)COC(C)C3N)c(CO)nc1Sc1ccnc(N)c1Cl (centres undefined) + C#Cc1c(F)ccc2cc(O)cc(-c3ncc4c(N5CC6CCC(C5)N6)nc(OCC56CCCN5CC(F)C6)nc4c3F)c12
- IC50 (second compound 0.0316 µM): < 31.6 nM
- IC50 (second compound 0.1 µM): < 31.6 nM
- IC50 (second compound 0.316 µM): < 31.6 nM
- IC50 (second compound 1 µM): < 31.6 nM
- IC50 (second compound 3.16 µM): < 31.6 nM
- IC50 (second compound 10 µM): < 31.6 nM
- viability, T/C [1]: 12.6%
- viability, T/C [2]: 5.6%
- viability, T/C [3]: 3.15%
- viability, T/C [4]: 1.95%
- viability, T/C [5]: 1.57%
- viability, T/C [6]: 0.92%
- viability, T/C [7]: 5.2%
- viability, T/C [8]: 3.07%
- viability, T/C [9]: 1.59%
- viability, T/C [10]: 0.92%
- viability, T/C [11]: 0.97%
- viability, T/C [12]: 0.63%
- viability, T/C [13]: 2.68%
- viability, T/C [14]: 1.49%
- viability, T/C [15]: 0.84%
- viability, T/C [16]: 0.98%
- viability, T/C [17]: 0.78%
- viability, T/C [18]: 0.67%
- viability, T/C [19]: 1.74%
- viability, T/C [20]: 1.54%
- viability, T/C [21]: 1.31%
- viability, T/C [22]: 0.99%
- viability, T/C [23]: 0.81%
- viability, T/C [24]: 0.51%
- viability, T/C [25]: 1.99%
- viability, T/C [26]: 1.51%
- viability, T/C [27]: 1.34%
- viability, T/C [28]: 0.77%
- viability, T/C [29]: 0.8%
- viability, T/C [30]: 0.33%
- viability, T/C [31]: 1.85%
- viability, T/C [32]: 0.91%
- viability, T/C [33]: 0.69%
- viability, T/C [34]: 0.44%
- viability, T/C [35]: 0.38%
- viability, T/C [36]: 0.14%

SMILES: NC1c2ccccc2OC12CCN(c1cnc3c(N4CCCc5ncccc54)n[nH]c3n1)CC2 (centres undefined) + C#Cc1c(F)ccc2cc(O)cc(-c3ncc4c(N5CC6CCC(C5)N6)nc(OCC56CCCN5CC(F)C6)nc4c3F)c12
- IC50 (second compound 0.0316 µM): < 31.6 nM
- IC50 (second compound 0.1 µM): < 31.6 nM
- IC50 (second compound 0.316 µM): < 31.6 nM
- IC50 (second compound 1 µM): < 31.6 nM
- IC50 (second compound 3.16 µM): < 31.6 nM
- IC50 (second compound 10 µM): < 31.6 nM
- viability, T/C [1]: 2.52%
- viability, T/C [2]: 1.69%
- viability, T/C [3]: 1.2%
- viability, T/C [4]: 0.72%
- viability, T/C [5]: 0.33%
- viability, T/C [6]: 0.32%
- viability, T/C [7]: 1.81%
- viability, T/C [8]: 1.39%
- viability, T/C [9]: 0.82%
- viability, T/C [10]: 0.62%
- viability, T/C [11]: 0.38%
- viability, T/C [12]: 0.25%
- viability, T/C [13]: 1.2%
- viability, T/C [14]: 0.66%
- viability, T/C [15]: 0.72%
- viability, T/C [16]: 0.67%
- viability, T/C [17]: 0.35%
- viability, T/C [18]: 0.35%
- viability, T/C [19]: 1.27%
- viability, T/C [20]: 1.46%
- viability, T/C [21]: 0.57%
- viability, T/C [22]: 0.5%
- viability, T/C [23]: 0.21%
- viability, T/C [24]: 0.22%
- viability, T/C [25]: 0.86%
- viability, T/C [26]: 1.11%
- viability, T/C [27]: 0.52%
- viability, T/C [28]: 0.29%
- viability, T/C [29]: 0.29%
- viability, T/C [30]: 0.34%
- viability, T/C [31]: 0.92%
- viability, T/C [32]: 0.33%
- viability, T/C [33]: 0.31%
- viability, T/C [34]: 0.14%
- viability, T/C [35]: 0.19%
- viability, T/C [36]: 0.12%
